Molecular target: T1, Prolyl 4-hydroxylase subunit alpha-1 (Gallus gallus, UniProt P16924)
T1 sequence (P16924 whole entry): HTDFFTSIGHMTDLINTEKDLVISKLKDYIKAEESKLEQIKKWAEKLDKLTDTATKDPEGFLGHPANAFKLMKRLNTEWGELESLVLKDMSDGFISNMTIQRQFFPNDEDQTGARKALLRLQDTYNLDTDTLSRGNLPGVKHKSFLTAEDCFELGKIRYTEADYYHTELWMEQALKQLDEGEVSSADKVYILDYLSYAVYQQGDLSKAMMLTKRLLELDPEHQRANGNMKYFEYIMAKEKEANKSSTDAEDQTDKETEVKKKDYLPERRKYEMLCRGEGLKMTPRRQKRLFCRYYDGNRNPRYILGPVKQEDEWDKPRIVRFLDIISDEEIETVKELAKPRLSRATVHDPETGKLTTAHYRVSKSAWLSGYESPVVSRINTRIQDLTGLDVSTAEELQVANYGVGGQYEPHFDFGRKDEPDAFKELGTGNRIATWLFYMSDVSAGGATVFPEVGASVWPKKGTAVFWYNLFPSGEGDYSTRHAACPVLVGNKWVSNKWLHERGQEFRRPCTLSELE
Experiment: Inhibition Assay
Description: Inhibition assay using procollagen-prolin, 2-oxoglutarate 4-dioxygenase.

Row | Compound | Ki [µM]
1 | O=C(O)c1cc(O)ccc1O [2,5-Dihydroxybenzoate, VI] | 1400
2 | O=C(O)CCc1ccc(O)c(O)c1 [3-(3,4-dihydroxyphenyl)propanoic acid] | 13
3 | O=C(O)Cc1ccccc1 [Phenylacetate, XIX] | > 20000
4 | O=C1OC(C(O)CO)C(O)C1O (stereo unspecified) [5-(1,2-Dihydroxy-ethyl)-3,4-dihydroxy-dihydro-furan-2-one] | > 20000
5 | O=C(O)c1ccc(O)cc1O [beta-Resorcylic acid] | 530
6 | Oc1cccc(O)c1O | 30
7 | Oc1cccc(O)c1 | 10200
8 | O=C(O)Cc1ccc(O)c(O)c1 [SMR000326727] | 9
9 | O=C(O)c1ccc(O)cc1 [4-Hydroxybenzoate, III] | 3200
10 | O=C(O)/C=C/c1ccc(O)c(O)c1 [3,4-Dihydroxycinnamate, XVII] | 18
11 | O=C(O)C(O)c1ccc(O)c(O)c1 (stereo unspecified) [3,4-Dihydroxymandelate, XVI] | 9
12 | O=C(O)[C@H](O)c1ccccc1 [(+)-Mandelate, XXI] | > 20000
13 | O=C(O)c1cc(O)cc(O)c1 [3,5-dihydroxybenzoic acid] | 9000
14 | Oc1ccc(O)cc1 | 14000
15 | O=C(O)c1c(O)cccc1O [2,6-Dihydroxybenzoate, VII] | 1100
16 | O=C(O)c1ccc(O)c(O)c1 [Protocatechuic acid (M1)] | 5
17 | O=C(O)c1cc(O)c(O)c(O)c1 [Gallic Acid, F] | 30
18 | O=C(O)c1cccc(O)c1 | > 20000
19 | O=C(O)c1ccccc1O [salicylic acid] | 2300
20 | O=C(O)c1cccc(O)c1O [2,3-Dihydroxybenzoate, IV] | 70
21 | Oc1ccccc1O [1,2-Dihydroxybenzene, XI] | 25

Reference: BindingDB's records for PubMed 3011801 (University of Oulu, 1986)
